Source: US11230533B2, “Crystalline salts and polymorphs of a P2X3 antagonist” (Afferent Pharmaceuticals, Inc., priority 2016, dated 2022)
≈ marks a conversion by molar mass, not a printed value. Read-outs that look alike come from different tables or passages of the source.

Experiment: Approximate solubility by solvent addition
Format: physicochemical
Protocol: Solubilities are calculated based on the total solvent used to give a solution; actual solubilities may be greater because of the volume of the solvent portions used or a slow rate of dissolution. Values are rounded to the nearest whole number.
Solubilities are calculated based on the total solvent used to give a solution; actual solubilities may be greater because of the volume of the solvent portions used or a slow rate of dissolution. Values are rounded to the nearest whole number. […] If dissolution occurred as determined by the visual assessment after the addition of the first aliquot, the value is reported as “>”.

solubility (aqueous with cosolvent or surfactant or cyclodextrin, thermodynamic from solid, solvent acetone/water 50:50 (v/v), read-out: Solubility): < 1000 µg/mL | solubility (organic solvent or mixture, thermodynamic from solid, solvent ACN/water 90:10 (v/v), read-out: Solubility): 1000 µg/mL (≈ 2830 µM) | solubility (organic solvent or mixture, thermodynamic from solid, solvent ACN, read-out: Solubility): < 2000 µg/mL | solubility (organic solvent or mixture, thermodynamic from solid, solvent DMSO, read-out: Solubility): 20000 µg/mL (≈ 56600 µM) | solubility (organic solvent or mixture, thermodynamic from solid, solvent EtOAc, read-out: Solubility): < 1000 µg/mL | solubility (organic solvent or mixture, thermodynamic from solid, solvent EtOH, read-out: Solubility): < 1000 µg/mL | solubility (organic solvent or mixture, thermodynamic from solid, solvent MeOH, read-out: Solubility): 1000 µg/mL (≈ 2830 µM) | solubility (organic solvent or mixture, thermodynamic from solid, solvent TFE, read-out: Solubility): 2000 µg/mL (≈ 5660 µM) | solubility (organic solvent or mixture, thermodynamic from solid, solvent acetone, read-out: Solubility): < 1000 µg/mL | solubility (solvent water, ambient temperature): <1000 µg/mL | solubility (thermodynamic from solid, solvent water, ambient temperature, read-out: Solubility): < 1000 µg/mL
Compound: COc1cc(C(C)C)c(Oc2cnc(N)nc2N)cc1S(N)(=O)=O [Compound A Free Base Form A, 5-(2,4-diamino-pyrimidin-5-yloxy)-4-isopropyl-2-methoxy-benzenesulfonamide]
